SMILES strings stand for the structures. Bounds are passed on as bounds.

Usually LD50 stands for the dose at which mortality reaches 50%.

Tested on in the first data set: not listed separately
Nature of the data set: in vivo. The conditions noted are these: mouse, in vivo, ip, LD50 i.p., i.p., 24 hours after administration, male ddY mice. On the procedure:
By using male ddY-strain 5-week old mice (3 to 4 per group), the compounds of general formula (1) were each administered orally or intraperitoneally as a solution in saline or as a suspension in methyl cellulose, and 24 hours after the administration, the toxicity of the compounds was evaluated.
The compound `CCCCCCCN(CC)CCCOc1ccc2c(c1)OCC2=O.Cl` [Compound 102, 6-3-(N-ethyl-N-heptylamino)propyloxycoumaran-3-one hydrochloride] yielded an LD50 at 24 h of roughly 100 mg/kg.

Staying with this data set, now noted: mouse, in vivo, po, LD50 p.o., p.o., 24 hours after administration, male ddY mice.
Regarding `CCCCCCCN(CC)CCCOc1ccc2c(c1)OCC2=O.Cl` [Compound 102, 6-3-(N-ethyl-N-heptylamino)propyloxycoumaran-3-one hydrochloride], the LD50 at 24 h was roughly 300 mg/kg.

The compound `CC1CCCN(CCCOc2ccc3c(c2)OCC3=O)C1` (stereo not shown) [Compound 1118] showed an LD50 at 24 h greater than 300 mg/kg.

In turn, `CC1CCCC(C)N1CCCOc1ccc2c(c1)OCC2=O` (stereo not shown) [Compound 1126] returned an LD50 at 24 h greater than 300 mg/kg.

The test system of a further data set is Purkinje fiber. Nature of the data set: Effect on APD (APD75, field-stimulated right ventricular free wall). Type of data set: cell-based, adult mongrel dog. The conditions noted are these: Canis lupus familiaris, purkinje, 20 min, dose 1 μg/ml, 20 minutes incubation, 37° C., 1 Hz; control before drug = 100%; read-out: APD75 % (percent change in APD75). In a few lines: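 Right ventricular free wall from pentobarbital-anaesthetized adult mongrel dog, held in Tyrode's solution at 37° C. with 1 Hz field stimulation. Purkinje fiber action potentials recorded by intracellular glass microelectrodes; APD75 measured after 20 minutes drug perfusion, expressed as percent change versus pre-drug control (100%).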
Consider `CCCCN(CCCC)CCCOc1ccc2c(c1)OCC2=O` [Compound 144], for which the activation at 1 µg/mL was 13%.

Consider `CC1CCCN(CCCOc2ccc3c(c2)OCC3=O)C1` (stereo not shown) [Compound 1118], for which the activation at 1 µg/mL was 10%.

The data set is the same for the next values; noted with them: Canis lupus familiaris, purkinje, 20 min, dose 3 μg/ml, 20 minutes incubation, 37° C., 1 Hz; control before drug = 100%; read-out: APD75 % (percent change in APD75).
With `CCCCN(CCCC)CCCOc1ccc2c(c1)OCC2=O` [Compound 144], the activation at 3 µg/mL stood at 26%.

Take `CC1CCCN(CCCOc2ccc3c(c2)OCC3=O)C1` (stereo not shown) [Compound 1118]: the activation at 3 µg/mL was 13%.

As for `CC1CCCC(C)N1CCCOc1ccc2c(c1)OCC2=O` (stereo not shown) [Compound 1126], the activation at 3 µg/mL was found to be 19%.

The data set is the same for the next values; noted with them: Canis lupus familiaris, purkinje, 20 min, dose 10 μg/ml, 20 minutes incubation, 37° C., 1 Hz; control before drug = 100%; read-out: APD75 % (percent change in APD75).
In the case of `CCCCN(CCCC)CCCOc1ccc2c(c1)OCC2=O` [Compound 144], the activation at 10 µg/mL worked out at 33%.

Consider `CC1CCCN(CCCOc2ccc3c(c2)OCC3=O)C1` (stereo not shown) [Compound 1118], for which the activation at 10 µg/mL worked out at 24%.

Regarding `CC1CCCC(C)N1CCCOc1ccc2c(c1)OCC2=O` (stereo not shown) [Compound 1126], the activation at 10 µg/mL was determined as 27%.

Still in this data set, the particulars now being: dose 1 μg/ml, 20 minutes incubation, 37° C., 1 Hz; control before drug = 100%.
As to `CCCCCCCN(CC)CCCOc1ccc2c(c1)OCC2=O.Cl` [Compound 102, 6-3-(N-ethyl-N-heptylamino)propyloxycoumaran-3-one hydrochloride], the “APD75 % (percent change in APD75)” value worked out at 20%.

Still in this data set, the particulars now being: dose 3 μg/ml, 20 minutes incubation, 37° C., 1 Hz; control before drug = 100%.
On to `CCCCCCCN(CC)CCCOc1ccc2c(c1)OCC2=O.Cl` [Compound 102, 6-3-(N-ethyl-N-heptylamino)propyloxycoumaran-3-one hydrochloride], for which the “APD75 % (percent change in APD75)” value amounted to 30%.

In another data set the test system is right ventricle (effective refractory period). Nature of the data set: Activity on ERP of the right ventricle. Type of data set: in vivo, adult mongrel dog. Conditions: Canis lupus familiaris, iv; 0.1 mg/kg i.v.; ERP before drug = 100%; read-out: ERP % (ERP prolonging activity). In a few lines: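 Anaesthetized open-chest mongrel dogs, right ventricle paced at 400 msec interval (4 msec, twice diastolic threshold) after alcohol ablation of sinus pacemaker. ERP defined by loss of response to first stimulus of a 10-stimulus train; drug given intravenously or intraduodenally, ERP expressed as % of pre-dose.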
Regarding `CCCCCCCN(CC)CCCOc1ccc2c(c1)OCC2=O.Cl` [Compound 102, 6-3-(N-ethyl-N-heptylamino)propyloxycoumaran-3-one hydrochloride], the change in vivo at 0.1 mg/kg turned out to be 11.7 ± 3.2%.

With `CCCCN(CCCC)CCCOc1ccc2c(c1)OCC2=O` [Compound 144], the change in vivo at 0.1 mg/kg was determined as 10 ± 1.7%.

Consider `CC1CCCN(CCCOc2ccc3c(c2)OCC3=O)C1` (stereo not shown) [Compound 1118], for which the change in vivo at 0.1 mg/kg came to 5%.

Still in this data set, the particulars now being: Canis lupus familiaris, iv; 0.3 mg/kg i.v.; ERP before drug = 100%; read-out: ERP % (ERP prolonging activity).
With `CCCCCCCN(CC)CCCOc1ccc2c(c1)OCC2=O.Cl` [Compound 102, 6-3-(N-ethyl-N-heptylamino)propyloxycoumaran-3-one hydrochloride], the change in vivo at 0.3 mg/kg is 21.3 ± 3.3%.

For `CCCCN(CCCC)CCCOc1ccc2c(c1)OCC2=O` [Compound 144], the change in vivo at 0.3 mg/kg came out at 15.5 ± 4.9%.

In the case of `CC1CCCN(CCCOc2ccc3c(c2)OCC3=O)C1` (stereo not shown) [Compound 1118], the change in vivo at 0.3 mg/kg turned out to be 9%.

As to `CC1CCCC(C)N1CCCOc1ccc2c(c1)OCC2=O` (stereo not shown) [Compound 1126], the change in vivo at 0.3 mg/kg worked out at 8%.

The same data set, now with this note: Canis lupus familiaris, iv; 1 mg/kg i.v.; ERP before drug = 100%; read-out: ERP % (ERP prolonging activity).
For the compound `CCCCCCCN(CC)CCCOc1ccc2c(c1)OCC2=O.Cl` [Compound 102, 6-3-(N-ethyl-N-heptylamino)propyloxycoumaran-3-one hydrochloride], the change in vivo at 1 mg/kg worked out at 23.3 ± 2.9%.

As to `CCCCN(CCCC)CCCOc1ccc2c(c1)OCC2=O` [Compound 144], the change in vivo at 1 mg/kg was 21.1 ± 6.2%.

Turning to `CC1CCCN(CCCOc2ccc3c(c2)OCC3=O)C1` (stereo not shown) [Compound 1118], the change in vivo at 1 mg/kg was 22%.

For the compound `CC1CCCC(C)N1CCCOc1ccc2c(c1)OCC2=O` (stereo not shown) [Compound 1126], the change in vivo at 1 mg/kg came to 12%.

The data set is the same for the next values; noted with them: Canis lupus familiaris, iv; 3 mg/kg i.v.; ERP before drug = 100%; read-out: ERP % (ERP prolonging activity).
In the case of `CC1CCCN(CCCOc2ccc3c(c2)OCC3=O)C1` (stereo not shown) [Compound 1118], the change in vivo at 3 mg/kg is 26%.

Turning to `CC1CCCC(C)N1CCCOc1ccc2c(c1)OCC2=O` (stereo not shown) [Compound 1126], the change in vivo at 3 mg/kg stood at 15%.

Still in this data set, the particulars now being: Canis lupus familiaris; 0.1 mg/kg i.d.; ERP before drug = 100%; read-out: ERP % (ERP prolonging activity).
For `CCCCCCCN(CC)CCCOc1ccc2c(c1)OCC2=O.Cl` [Compound 102, 6-3-(N-ethyl-N-heptylamino)propyloxycoumaran-3-one hydrochloride], the change in vivo at 0.1 mg/kg is 0%.

The same data set, now with this note: Canis lupus familiaris; 0.3 mg/kg i.d.; ERP before drug = 100%; read-out: ERP % (ERP prolonging activity).
On to `CCCCCCCN(CC)CCCOc1ccc2c(c1)OCC2=O.Cl` [Compound 102, 6-3-(N-ethyl-N-heptylamino)propyloxycoumaran-3-one hydrochloride], for which the change in vivo at 0.3 mg/kg came out at 13%.

The same data set, now with this note: Canis lupus familiaris; 1 mg/kg i.d.; ERP before drug = 100%; read-out: ERP % (ERP prolonging activity).
On to `CCCCCCCN(CC)CCCOc1ccc2c(c1)OCC2=O.Cl` [Compound 102, 6-3-(N-ethyl-N-heptylamino)propyloxycoumaran-3-one hydrochloride], for which the change in vivo at 1 mg/kg was found to be 27%.

Another data set concerns atrial fibrillation. Description: Atrial fibrillation model. Type of data set: in vivo, mongrel dog. Conditions: dose of 0.3 to 3 mg/kg or 1 to 10 mg/kg. The text has this:
Furthermore, the anaethetized dog was cut open at the chest. Bipolar electrodes were sutured to the right atrial surface, and stimulation electrodes were attached to the vagus nerves at both sides of the cervical region. Atrial fibrillation was induced by the method of Goldberger et al. A. L. Goldberger et al.: […] Further, the anaethetized dog was cut open at the chest. Left anterior descending coronary artery was ligated, and ninety minutes later, reperfused to prepare a myocardial infarction which was liable to develop tachycardia. At that time, a bipolar plunge electrode was placed in the interventricular septum near the ligated site. Several days after the operation, programmed electrical stimulation was applied to induce tachycardia. The effect of the drug to cause disappear of tachycardia was examined. In an anaethetized and open-chested mongrel dog, bipolar electrodes (silver and silver-silver chloride electrodes) were sutured respectively to the right atrium for stimulation and recording. The vagus nerves on both sides of the cervical region were isolated and cut, and stimulation electrodes were attached to the peripheral end. The atrial fibrillation was induced in accordance with the method of Goldberger et al. After cardiac arrest induced by stimulating the vagus nerves, electrical stimulation was applied to the right atria at a high frequency.
As to `CCCCCCCN(CC)CCCOc1ccc2c(c1)OCC2=O.Cl` [Compound 102, 6-3-(N-ethyl-N-heptylamino)propyloxycoumaran-3-one hydrochloride], the “disappearance of atrial fibrillation” value is on record as “could cause disappearance fibrillation”.

In the case of `CCCCN(CCCC)CCCOc1ccc2c(c1)OCC2=O` [Compound 144], the “disappearance of atrial fibrillation” value was “could cause disappearance fibrillation”.

Turning to `CC1CCCN(CCCOc2ccc3c(c2)OCC3=O)C1` (stereo not shown) [Compound 1118], the “disappearance of atrial fibrillation” value was “could cause disappearance fibrillation”.

With `CC1CCCC(C)N1CCCOc1ccc2c(c1)OCC2=O` (stereo not shown) [Compound 1126], the “disappearance of atrial fibrillation” value is “could cause disappearance fibrillation”.

The record behind these values is US5192799A, “Coumaran group containing amine compounds and their acid addition salts and quaternary ammonium salts and the use thereof as anti arrhythmic agents and as psychotropic agents” (Mitsui Petrochemical Industries, Ltd., priority 1987, dated 1993).
